In patent US20210238162A1, “CHEMICAL COMPOUNDS” (GlaxoSmithKline Intellectual Property Development Limited, priority 2015, published 2021):

Target: T1, haematopoietic prostaglandin D synthase (H-PGDS) (Homo sapiens, UniProt O60760)
T1 construct: Full length human H-PGDS cDNA (Invitrogen Ultimate ORF IOH13026) was amplified by PCR; made in house; host or cells: E. coli BL21 (DE3*), vector pET22b+
Assay: H-PGDS RapidFire High Throughput Mass Spectrometry Assay
Type: biochemical
Settings: H-PGDS RapidFire MS assay, mean pIC50; read-out: Potency Range (mean pIC50) (converted)
Procedure, shortened: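 PGH2 (~10 μM burst) generated in situ from arachidonic acid by FLAG-tagged human COX-2 (Sf9-expressed), then converted to PGD2 by full-length human His-tagged H-PGDS from E. coli. PGD2 and PGF2α (substrate surrogate) quantified by RapidFire SPE-triple quadrupole MS; percent conversion calculated.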

T1 sequence (O60760 whole entry): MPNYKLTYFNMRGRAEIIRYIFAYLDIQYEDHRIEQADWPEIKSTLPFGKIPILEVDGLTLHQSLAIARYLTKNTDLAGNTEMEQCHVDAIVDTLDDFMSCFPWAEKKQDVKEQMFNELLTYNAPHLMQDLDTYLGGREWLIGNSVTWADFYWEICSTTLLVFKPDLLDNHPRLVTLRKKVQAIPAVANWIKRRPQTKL

Row | SMILES | IC50
1 | C[C@H](N[C@H]1CC[C@H](NC(=O)c2cnc3cc(OC(F)F)c(Cl)cc3c2)CC1)C(F)F [Example 130, 6-Chloro-7-(difluoromethoxy)-N-(trans-4-(((S)-1,1-difluoropropan-2-yl)amino)cyclohexyl)quinoline-3-carboxamide] | < 0.01 µM
2 | CC(C)(O)[C@@H]1CC[C@@H](NC(=O)c2cnc3cc(OC(F)F)ccc3c2)CO1 (racemic) [Example 22, Racemic 7-(Difluoromethoxy)-N-((3s,6r)-6-(2-hydroxypropan-2-yl)tetrahydro-2H-pyran-3-yl)quinoline-3-carboxamide] | 0.01 to 0.0794 µM
3 | O=C(NC1CCN(c2ccccn2)CC1)c1cnc2cc(OC(F)F)c(F)cc2c1 [Example 95, 7-(Difluoromethoxy)-6-fluoro-N-(1-(pyridin-2-yl)piperidin-4-yl)quinoline-3-carboxamide] | < 0.01 µM
4 | C[C@@H](N[C@H]1C[C@H](NC(=O)c2cnc3cc(OC(F)F)c(F)cc3c2)C1)C(F)F [Example 74, 7-(Difluoromethoxy)-N-(trans-3-(((R)-1,1-difluoropropan-2-yl)amino)cyclobutyl)-6-fluoroquinoline-3-carboxamide] | 0.01 to 0.0794 µM
5 | CC(C)(O)[C@H]1C[C@H](NC(=O)c2cnc3cc(OC(F)F)ccc3c2)C1 [Example 11, 7-(Difluoromethoxy)-N-(trans-3-(2-hydroxypropan-2-yl)cyclobutyl)quinoline-3-carboxamide] | 0.01 to 0.0794 µM
6 | O=C(N[C@H]1CC[C@@H](N2CC(O)(C(F)(F)F)C2)CC1)c1cnc2cc(OC(F)F)c(F)cc2c1 [Example 91, 7-(Difluoromethoxy)-6-fluoro-N-(cis-4-(3-hydroxy-3-(trifluoromethyl)azetidin-1-yl)cyclohexyl)quinoline-3-carboxamide] | 0.1 to 1 µM
7 | N#Cc1cnc(N2CCC(NC(=O)c3cnc4cc(OC(F)F)c(F)cc4c3)CC2)o1 [Example 97, N-(1-(5-Cyanooxazol-2-yl)piperidin-4-yl)-7-(difluoromethoxy)-6-fluoroquinoline-3-carboxamide] | 0.01 to 0.0794 µM
8 | C[C@@H]1CNC(=O)[C@H]1NC(=O)c1cnc2cc(OC(F)F)c(Cl)cc2c1 [Example 144, 6-Chloro-7-(difluoromethoxy)-N-((3S,4R)-4-methy-2-oxopyrrolidin-3-yl)quinoline-3-carboxamide] | < 0.01 µM
9 | C[C@@H](NC[C@H]1CC[C@H](NC(=O)c2cnc3cc(OC(F)F)c(F)cc3c2)CC1)C(F)F [Example 99, 7-(Difluoromethoxy)-N-(trans-4-((((R)-1,1-difluoropropan-2-yl)amino)methyl)cyclohexyl)-6-fluoroquinoline-3-carboxamide] | 0.01 to 0.0794 µM
10 | Cn1nnnc1N1CCC(NC(=O)c2cnc3cc(Cl)ccc3c2)CC1 [Example 109, 7-Chloro-N-(1-(1-methyl-1H-tetrazol-5-yl)piperidin-4-yl)quinoline-3-carboxamide] | 0.1 to 1 µM
11 | CCOC(=O)C[C@H]1CC[C@H](NC(=O)c2cnc3cc(OC(F)F)c(F)cc3c2)CC1 [Example 88, Ethyl 2-(trans-4-(7-(difluoromethoxy)-6-fluoroquinoline-3-carboxamido)cyclohexyl)acetate] | 0.01 to 0.0794 µM
12 | CN(C)C(=O)[C@H]1CC[C@H](NC(=O)c2cnc3cc(OC(F)F)ccc3c2)CC1 [Example 5, 7-(Difluoromethoxy)-N-((trans)-4-(dimethylcarbamoyl)cyclohexyl)quinoline-3-carboxamide] | 0.01 to 0.0794 µM
13 | CC(O)(CO[C@H]1CC[C@H](NC(=O)c2cnc3cc(OC(F)F)ccc3c2)CC1)C(F)(F)F (stereo partly drawn) [Example 19, 7-(Difluoromethoxy)-N-(trans-4-(3,3,3-trifluoro-2-hydroxy-2-methylpropoxy)cyclohexyl)quinoline-3-carboxamide] | 0.01 to 0.0794 µM
14 | N#Cc1ccc(N2CC(NC(=O)c3cnc4cc(OC(F)F)c(F)cc4c3)C2)nc1 [Example 98, N-(1-(5-Cyanopyridin-2-yl)azetidin-3-yl)-7-(difluoromethoxy)-6-fluoroquinoline-3-carboxamide] | 0.01 to 0.0794 µM
15 | C[C@@H](N[C@H]1CC[C@H](NC(=O)c2cnc3cc(OC(F)F)c(F)cc3c2)CC1)C(F)(F)F [Example 62, 7-(Difluoromethoxy)-6-fluoro-N-(trans-4-(((R)-1,1,1-trifluoropropan-2-yl)amino)cyclohexyl)quinoline-3-carboxamide] | 0.01 to 0.0794 µM
16 | O=C(N[C@H]1CC[C@H](N2CC(O)(C(F)(F)F)C2)CC1)c1cnc2cc(OC(F)F)c(F)cc2c1 [Example 92, 7-(Difluoromethoxy)-6-fluoro-N-(trans-4-(3-hydroxy-3-(trifluoromethyl)azetidin-1-yl)cyclohexyl)quinoline-3-carboxamide] | 0.01 to 0.0794 µM
17 | C[C@@H]1CCN1c1cc2ncc(C(=O)N[C@H]3CC[C@H](C(C)(C)O)CC3)cc2cc1F [Example 175, 6-Fluoro-N-(trans-4-(2-hydroxypropan-2-yl)cyclohexyl)-7-((R)-2-methylazetidin-1-yl)quinoline-3-carboxamide] | 0.1 to 1 µM
18 | C[C@@H](N[C@H]1CC[C@H](NC(=O)c2cnc3cc(OC(F)F)c(Cl)cc3c2)CC1)C(F)F [Example 129, 6-Chloro-7-(difluoromethoxy)-N-(trans-4-(((R)-1,1-difluoropropan-2-yl)amino)cyclohexyl)quinoline-3-carboxamide] | < 0.01 µM
19 | CC(NC[C@H]1CC[C@H](NC(=O)c2cnc3cc(OC(F)F)c(F)cc3c2)CC1)C(F)F (mixture of isomers) [Example 75, 7-(Difluoromethoxy)-N-(trans-4-(((1,1-difluoropropan-2-yl)amino)methyl)cyclohexyl)-6-fluoroquinoline-3-carboxamide] | 0.01 to 0.0794 µM
20 | O=C1CC(NC(=O)c2cnc3cc(OC(F)F)ccc3c2)c2ccccc2N1 (stereo not shown) [Example 9, 7-(Difluoromethoxy)-N-(2-oxo-1,2,3,4-tetrahydroquinolin-4-yl)quinoline-3-carboxamide] | 0.01 to 0.0794 µM
21 | CC(C)(O)[C@H]1CC[C@H](NC(=O)c2cnc3c(Cl)c(OC(F)F)ccc3c2)CC1 [Example 216, 8-Chloro-7-(difluoromethoxy)-N-((trans)-4-(2-hydroxypropan-2-yl)cyclohexyl)quinoline-3-carboxamide] | 0.01 to 0.0794 µM
22 | O=C(N[C@H]1CC[C@@](O)(C(F)(F)F)CC1)c1cnc2cc(OC(F)F)c(Cl)cc2c1 [Example 227, 6-Chloro-7-(difluoromethoxy)-N-((trans)-4-hydroxy-4-(trifluoromethyl)cyclohexyl)quinoline-3-carboxamide] | 0.01 to 0.0794 µM
23 | C[C@@H]1CNC(=O)[C@H]1NC(=O)c1cnc2cc(N3CC[C@@H]3C)c(Cl)cc2c1 [Example 205, 6-Chloro-N-((3S,4R)-4-methyl-2-oxopyrrolidin-3-yl)-7-((S)-2-methylazetidin-1-yl)quinoline-3-carboxamide] | < 0.01 µM
24 | CCOc1ccc2cc(C(=O)N[C@H]3CC[C@H](C(C)(C)O)CC3)cnc2c1Cl [Example 218, 8-Chloro-7-ethoxy-N-(trans-4-(2-hydroxypropan-2-yl)cyclohexyl)quinoline-3-carboxamide] | 0.01 to 0.0794 µM
25 | NC(=O)CO[C@H]1CC[C@H](NC(=O)c2cnc3cc(OC(F)F)c(Cl)cc3c2)CC1 [Example 136, N-(trans-4-(2-Amino-2-oxoethoxy)cyclohexyl)-6-chloro-7-(difluoromethoxy)quinoline-3-carboxamide] | < 0.01 µM
